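Cells were grown in 96-well plates and exposed to each compound for 48 hours at five concentrations; endpoints were interpolated linearly between bracketing concentrations, or set to the highest concentration if not reached. At the GI50, growth is halved.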 Calls of active or inactive are those of the source. Cut-off read from the data, not from the text of the source: active = GI50 up to about 1.1 µM and inactive = higher.
Legend:
Experiment in all cases: growth of human tumour cells (NCI), 48 h
ACHN = test system: ACHN
DLD-1 = test system: DLD-1
DMS-114 = test system: DMS-114
DMS-273 = test system: DMS-273
HCC 2998 = test system: HCC 2998
HOP-18 = test system: HOP-18
HOP-62 = test system: HOP-62
KM-20L2 = test system: KM-20L2
LOX IMVI = test system: LOX IMVI
LXFL 529 = test system: LXFL 529
M14 = test system: M14
M19-MEL = test system: M19-MEL
Malme-3M = test system: Malme-3M
SNB-19 = test system: SNB-19
SNB-75 = test system: SNB-75
TK-10 = test system: TK-10
UACC-257 = test system: UACC-257
XF498 = test system: XF498
KM12 = test system: KM12

Measured: GI50

COc1ccc(C(=O)Cc2ccc(Cl)cc2)cc1OC
inactive: ACHN > 100 µM | DLD-1 > 100 µM | DMS-114 > 100 µM | DMS-273 > 100 µM | HCC 2998 > 100 µM | HOP-18 > 100 µM | HOP-62 > 100 µM | KM-20L2 > 100 µM | LOX IMVI > 100 µM | LXFL 529 > 100 µM | M14 > 100 µM | M19-MEL > 100 µM | Malme-3M > 100 µM | SNB-19 > 100 µM | SNB-75 34.4 µM | TK-10 > 100 µM | UACC-257 > 100 µM | XF498 > 100 µM

COc1cc(C2c3cc4c(cc3OC3(O)COC(=O)C23)OCO4)cc(OC)c1OC (stereo not given)
inactive: ACHN 53 µM | DLD-1 45.9 µM | DMS-114 34.7 µM | DMS-273 36.5 µM | HCC 2998 70 µM | HOP-18 > 100 µM | HOP-62 62.7 µM | KM-20L2 24.3 µM | LOX IMVI 47.5 µM | LXFL 529 39.8 µM | M14 34.7 µM | M19-MEL 56.6 µM | Malme-3M 81.1 µM | SNB-19 53.5 µM | SNB-75 25.2 µM | TK-10 51.3 µM | UACC-257 55 µM | XF498 35.7 µM

Cc1cc(Cl)ccc1NC1=NC(=O)C(CC(=O)Nc2cccc(Cl)c2)S1 (stereo not given)
inactive: ACHN 11.2 µM | DLD-1 21.7 µM | DMS-114 12.1 µM | DMS-273 29.8 µM | HCC 2998 63.2 µM | HOP-18 > 100 µM | HOP-62 > 100 µM | KM-20L2 26.5 µM | KM12 35.2 µM | LOX IMVI 13.3 µM | LXFL 529 39.9 µM | M14 44.7 µM | M19-MEL 43.9 µM | Malme-3M > 100 µM | SNB-19 > 100 µM | SNB-75 18.7 µM | TK-10 83.6 µM | UACC-257 38.8 µM | XF498 28.4 µM
